Source: the supplement of paper PMC11208160

Assay: recombinant barcode read abundance after kanamycin selection (control-corrected) (log10(CPM+1)); higher = more efficient recombination; sequences stand for … in AGTGCAGAGAAAATCGGCCAGTTTTCTCTGCCTGCAGTCCGCATGCCGT…AGATTTATGCAGCGGACTGCCTTTCTCCCAAAGTGATAAACCGGACAGTATCATGGACCGGTTTTCCCGGTAATCCGTATTTGCAAGGTTGGTTTCACT; site = the 11-nt target
Protocol: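 Pooled E. coli target-specificity screen for the IS621 bridge recombinase. Each library plasmid pairs an 11-nt target (CT core) with a bridge RNA whose target-binding loop (9-nt LTG + 4-nt RTG) is reprogrammed; the rest of the 177-nt WT IS621 bridge RNA scaffold is fixed. The plasmid is co-electroporated with a WT donor plasmid; recombinase is induced with 0.1 mM IPTG and recombinants are selected on kanamycin. Recombinant barcodes are sequenced, converted to CPM, averaged over two biological replicates and corrected by the unselected control CPM. Molecule = full bridge RNA written as DNA: LTG = specificity nt 1-9, RTG = reverse complement of specificity nt 8-11, in the WT scaffold.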
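Note: IS621 recombinase and bridge RNA in Escherichia coli cells.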

| Sequence | recombinant barcode read abundance (log10) |
| --- | --- |
| AACTGTCCTTGGGTTCTAACCTGTTGCAT (site AACTATCCTAT) | 0.106 |
| CATCGATCTTGGGTTCTAACCTGTTGCGT (site CATCGATCTAC) | 1.6 |
| TTGTAGACTTGGGTTCTAACCTGTTGCCT (site TTGATGACTAG) | 0.484 |
| TACTGAACTTGGGTTCTAACCTGTTGCCT (site TACTCAACTAG) | 0.104 |
| ACGGTGACTTGGGTTCTAACCTGTTGCCT (site TCGGTGACTAG) | 0.0684 |
| GTTGAGTCTTGGGTTCTAACCTGTTGCGT (site GTTGAGTCTAC) | 1.87 |
| TAGCCTACTTGGGTTCTAACCTGTTGCCG (site TAGCCTACTCG) | 0.725 |
| ACGCGAGCTTGGGTTCTAACCTGTTGCTG (site ACGCGAGCTCG) | 0.14 |
| ACTAGAGCTTGGGTTCTAACCTGTTGCCT (site ACAAGAGCTAG) | 0.122 |
| CGGCACACTTGGGTTCTAACCTGTTGCCT (site CGACACACTAG) | 0.239 |
| CGTGCGGCTTGGGTTCTAACCTGTTGCCT (site GGTGCGGCTAG) | 0.946 |
| AAGTTGACTTGGGTTCTAACCTGTTGCCT (site AATTTGACTAG) | 0.304 |
| TACGCGGCTTGGGTTCTAACCTGTTGCCT (site TACGAGGCTAG) | 0.0562 |
| CCGACTTCTTGGGTTCTAACCTGTTGCCT (site CGGACTTCTAG) | 0.244 |
| ACAATAGCTTGGGTTCTAACCTGTTGCTG (site ACAATAGCTCA) | 0.738 |
| CTAAGCTCTTGGGTTCTAACCTGTTGCTA (site CTAAGCTCTGA) | 0.172 |
| ACGAACCCTTGGGTTCTAACCTGTTGCCT (site ACGAACCCTAG) | 1.42 |
| TCGAGTCCTTGGGTTCTAACCTGTTGCGG (site TTGAGGCCTCC) | 0 |
| CCTCGCACTTGGGTTCTAACCTGTTGCGA (site CCTTGCACTTC) | 0.0861 |
| CAGGAACCTTGGGTTCTAACCTGTTGCCT (site CAGGAACCTAG) | 2.01 |
| TGAAAGTCTTGGGTTCTAACCTGTTGCCT (site TGAATGTCTAG) | 0.0411 |

| Sequence | recombinant barcode read abundance (log10) |
| --- | --- |
| TAGAGCACTTGGGTTCTAACCTGTTGCCT (site AAGAGCACTAG) | 0.057 |
| TAGAACACTTGGGTTCTAACCTGTTGCCT (site GAGAACACTAG) | 0.108 |
| CTATACTCTTGGGTTCTAACCTGTTGCCA (site CTATTCTCTTA) | 0.195 |
| CCATACCCTTGGGTTCTAACCTGTTGCTA (site CCATACCCTTA) | 0.884 |
| AGGCGCCCTTGGGTTCTAACCTGTTGCAG (site AGGCGCCCTTT) | 0.122 |
| GGAGCTCCTTGGGTTCTAACCTGTTGCCA (site GGAGCTCCTTG) | 0.371 |
| ACTAGCTCTTGGGTTCTAACCTGTTGCCT (site ACTAGCTCTAG) | 0.356 |
| CTAAAGTCTTGGGTTCTAACCTGTTGCAC (site CTAAAGTCTGT) | 1.51 |
| GTTTGACCTTGGGTTCTAACCTGTTGCGG (site TAGCTGACTGG) | 0.0274 |
| TACTGGGCTTGGGTTCTAACCTGTTGCTG (site TACTGGGCTCA) | 0.684 |
| TCGATCCCTTGGGTTCTAACCTGTTGCCT (site TCTATCCCTAG) | 0.0661 |
| ATAATAGCTTGGGTTCTAACCTGTTGCAT (site ATAATAGCTAT) | 2.02 |
| CGTTCTACTTGGGTTCTAACCTGTTGCCT (site CGTTCCACTAG) | 0.286 |
| CAAAATTCTTGGGTTCTAACCTGTTGCGT (site CAGAATACTAC) | 0.0891 |
| AATAACCCTTGGGTTCTAACCTGTTGCCT (site AGTAACCCTAG) | 0.146 |
| GAAGGCGCTTGGGTTCTAACCTGTTGCCT (site GAAGCCGCTAG) | 0.306 |
| ATAACGGCTTGGGTTCTAACCTGTTGCCT (site ATAACGGCTAG) | 0.434 |
| ATAAAGACTTGGGTTCTAACCTGTTGCCT (site ATAAAGACTAG) | 1.96 |
| CGCGATCCTTGGGTTCTAACCTGTTGCCT (site CGCGGTCCTAG) | 0.468 |
| ATGCGAGCTTGGGTTCTAACCTGTTGCAG (site ATGCGAGCTCA) | 0.791 |
| GCCATAACTTGGGTTCTAACCTGTTGCCT (site GCCATCACTAG) | 0.0218 |

| Sequence | recombinant barcode read abundance (log10) |
| --- | --- |
| TAGTCGACTTGGGTTCTAACCTGTTGCTT (site TAGACGACTAA) | 0.652 |
| TTAAAACCTTGGGTTCTAACCTGTTGCCT (site ATAAAACCTAG) | 0.0421 |
| ACAAAGACTTGGGTTCTAACCTGTTGCGC (site ACACAGACTGC) | 0.242 |
| CTAATGGCTTGGGTTCTAACCTGTTGCCT (site CTAATAGCTAG) | 0.176 |
| GTAAGAACTTGGGTTCTAACCTGTTGCTT (site GTAAGTACTAA) | 0.03 |
| TAGACTACTTGGGTTCTAACCTGTTGCTC (site TAGACTACTAA) | 0 |
| GGGGACCCTTGGGTTCTAACCTGTTGCGA (site GGGGACCCTCC) | 0.877 |
| AATGGGGCTTGGGTTCTAACCTGTTGCCT (site AATGGGTCTAG) | 0.274 |
| TAATGTACTTGGGTTCTAACCTGTTGCTT (site TAAAGTACTAA) | 0.0506 |
| AGGCGTCCTTGGGTTCTAACCTGTTGCCC (site AGGCGTCCTTG) | 0.211 |
| CTTGGAACTTGGGTTCTAACCTGTTGCCT (site CTTGGATCTAG) | 0.228 |
| TAGTGTCCTTGGGTTCTAACCTGTTGCGT (site TAGTTTCCTAC) | 0.0286 |
| TATAGAGCTTGGGTTCTAACCTGTTGCGG (site TATAGAGCTCC) | 2.21 |
| TAGATTACTTGGGTTCTAACCTGTTGCCT (site TAGATTACTAG) | 0.178 |
| ACGCACGCTTGGGTTCTAACCTGTTGCGG (site ACGCACGCTCC) | 0.979 |
| TCGTGCGCTTGGGTTCTAACCTGTTGCCT (site TCGTGCCCTAG) | 0.087 |
| AGTCGTTCTTGGGTTCTAACCTGTTGCCT (site AGTCGTTCTAG) | 0.23 |
| GCACCGCCTTGGGTTCTAACCTGTTGCCT (site CCACCGCCTAG) | 0.0991 |
| CTAGGAGCTTGGGTTCTAACCTGTTGCTA (site CTAGGAGCTAA) | 0.137 |
| ACACCGCCTTGGGTTCTAACCTGTTGCCT (site TCACCGCCTAG) | 0.118 |
| CATTAGCCTTGGGTTCTAACCTGTTGCCT (site CATCAGCCTAG) | 0.26 |

| Sequence | recombinant barcode read abundance (log10) |
| --- | --- |
| AGATTAGCTTGGGTTCTAACCTGTTGCCG (site AGATTAGCTCG) | 1.13 |
| CTATCGCCTTGGGTTCTAACCTGTTGCCT (site CTCTCGCCTAG) | 0.238 |
| ACATAGTCTTGGGTTCTAACCTGTTGCCT (site AGATACTCTAG) | 0.0816 |
| ACATTGTCTTGGGTTCTAACCTGTTGCCT (site ACGTTGTCTAG) | 0.0669 |
| GGATTCACTTGGGTTCTAACCTGTTGCCA (site GGATGCACTTG) | 0.925 |
| AGGTTCCCTTGGGTTCTAACCTGTTGCTC (site AGGTTCCCTCA) | 0.101 |
| CCTCAGTCTTGGGTTCTAACCTGTTGCTT (site CCTCATTCTAA) | 0.122 |
| GGTAAGTCTTGGGTTCTAACCTGTTGCCT (site GGTAAATCTAG) | 0.3 |
| ATCGGAGCTTGGGTTCTAACCTGTTGCCG (site ATCGGAGCTCC) | 0.0715 |
| CGCGTTCCTTGGGTTCTAACCTGTTGCCT (site CGCGGTCCTAG) | 0.542 |
| CTCGGATCTTGGGTTCTAACCTGTTGCTT (site CTCGGATCTCA) | 0.0569 |
| TAGAACACTTGGGTTCTAACCTGTTGCCT (site CAGAACACTAG) | 0.256 |
| TCTATGACTTGGGTTCTAACCTGTTGCCT (site TCTATGACTAG) | 0.0099 |
| TACAGAGCTTGGGTTCTAACCTGTTGCGG (site TAGAGAGCTCC) | 0.127 |
| TAGGTGACTTGGGTTCTAACCTGTTGCGG (site TAGGTGACTCC) | 2.13 |
| GGGCACTCTTGGGTTCTAACCTGTTGCTT (site GGGCACTCTAA) | 1.93 |
| ACCCGCTCTTGGGTTCTAACCTGTTGCCT (site ACCCGCTCTAG) | 0.542 |
| ATATGTCCTTGGGTTCTAACCTGTTGCAG (site ATATGTCCTCT) | 1.88 |
| CACGACCCTTGGGTTCTAACCTGTTGCCT (site CATGACCCTAG) | 0.16 |
